{
  "source": "paper PMC7031696",
  "about": "(Cell chemical biology, 2019)",
  "system": "3D7-MR4 trophozoite parasite-infected RBCs",
  "assay": "Metabolomic profiling (hydrophilic metabolite changes, UHPLC-MS)",
  "type": "cell-based, Plasmodium falciparum",
  "data": [
    {"molecule": "CC(C)(C)c1ccc2c(c1)CN(Cc1ccc(Cl)cc1)CO2", "note": "[MMV000442]", "values": [
      {"measurement": "Log2(fold changes) adenosine", "setting": "metabolite adenosine, log2 fold change", "value": 0.0000},
      {"measurement": "Log2(fold changes) alanine/sarcosine", "setting": "metabolite alanine/sarcosine, log2 fold change", "value": -0.9186},
      {"measurement": "Log2(fold changes) anthranilate", "setting": "metabolite anthranilate, log2 fold change", "value": 0.3315},
      {"measurement": "Log2(fold changes) arginine", "setting": "metabolite arginine, log2 fold change", "value": -1.6314},
      {"measurement": "Log2(fold changes) asparagine", "setting": "metabolite asparagine, log2 fold change", "value": -0.3296},
      {"measurement": "Log2(fold changes) aspartate", "setting": "metabolite aspartate, log2 fold change", "value": -0.6205},
      {"measurement": "Log2(fold changes) biotin", "setting": "metabolite biotin, log2 fold change", "value": -0.8987},
      {"measurement": "Log2(fold changes) cCMP", "setting": "metabolite cCMP, log2 fold change", "value": 0.0000},
      {"measurement": "Log2(fold changes) cGMP", "setting": "metabolite cGMP, log2 fold change", "value": 0.0000},
      {"measurement": "Log2(fold changes) carnitine", "setting": "metabolite carnitine, log2 fold change", "value": 0.0000},
      {"measurement": "Log2(fold changes) citrate/isocitrate", "setting": "metabolite citrate/isocitrate, log2 fold change", "value": 0.0000},
      {"measurement": "Log2(fold change) of coenzyme A", "setting": "metabolite coenzyme A", "value": 0.0000},
      {"measurement": "Log2(fold change) of cyclic-AMP", "setting": "metabolite cyclic-AMP", "value": -0.6289},
      {"measurement": "Log2(fold change) of cytidine", "setting": "metabolite cytidine", "value": 0.6525},
      {"measurement": "Log2(fold change) of dAMP", "setting": "metabolite dAMP", "value": 0.2859},
      {"measurement": "Log2(fold change) of dATP", "setting": "metabolite dATP", "value": 0.0000},
      {"measurement": "Log2(fold change) of dCDP", "setting": "metabolite dCDP", "value": -0.4379},
      {"measurement": "Log2(fold change) of dCMP", "setting": "metabolite dCMP", "value": 0.0000},
      {"measurement": "Log2(fold change) of dCTP", "setting": "metabolite dCTP", "value": 0.0000},
      {"measurement": "Log2(fold change) of dGDP/ADP", "setting": "metabolite dGDP/ADP", "value": -0.0785},
      {"measurement": "Log2(fold change) of dGMP/AMP", "setting": "metabolite dGMP/AMP", "value": 0.0000},
      {"measurement": "Log2(fold change) of dGTP/ATP", "setting": "metabolite dGTP/ATP", "value": 0.0000},
      {"measurement": "Log2(fold change) of dTDP", "setting": "metabolite dTDP", "value": -0.1987},
      {"measurement": "Log2(fold change) of dTMP", "setting": "metabolite dTMP", "value": 0.0000},
      {"measurement": "Log2(fold change) of dTTP", "setting": "metabolite dTTP", "value": -0.2587},
      {"measurement": "Log2(fold change) of dUMP", "setting": "metabolite dUMP", "value": 0.0000},
      {"measurement": "Log2(fold change) of dUTP", "setting": "metabolite dUTP", "value": -0.3266},
      {"measurement": "Log2(fold change) of deoxyguanosine", "setting": "metabolite deoxyguanosine", "value": 0.0000},
      {"measurement": "Log2(fold change) of deoxyinosine", "setting": "metabolite deoxyinosine", "value": 0.0000},
      {"measurement": "Log2(fold change) of deoxyribose-phosphate", "setting": "metabolite deoxyribose-phosphate", "value": 0.7610},
      {"measurement": "Log2(fold change) of deoxyuridine", "setting": "metabolite deoxyuridine", "value": 0.1388},
      {"measurement": "Log2(fold change) of dihydroorotate", "setting": "metabolite dihydroorotate", "value": -0.6717},
      {"measurement": "Log2(fold change) of folate", "setting": "metabolite folate", "value": -0.1041},
      {"measurement": "Log2(fold change) of fructose-1-6-bisphosphate", "setting": "metabolite fructose-1-6-bisphosphate", "value": -0.1009},
      {"measurement": "Log2(fold change) of fructose-6-phosphate", "setting": "metabolite fructose-6-phosphate", "value": -0.3802},
      {"measurement": "Log2(fold change) of fumarate", "setting": "metabolite fumarate", "value": -0.7813},
      {"measurement": "Log2(fold change) of glucono-lactone", "setting": "metabolite glucono-lactone", "value": 0.0000},
      {"measurement": "Log2(fold change) of glucose-1/6-phosphate", "setting": "metabolite glucose-1/6-phosphate", "value": 0.0000},
      {"measurement": "Log2(fold change) of glutamate", "setting": "metabolite glutamate", "value": -0.2803},
      {"measurement": "Log2(fold change) of glutamine", "setting": "metabolite glutamine", "value": -0.0929},
      {"measurement": "Log2(fold change) of glutathione", "setting": "metabolite glutathione", "value": -0.1808},
      {"measurement": "Log2(fold change) glutathione disulfide", "setting": "metabolite glutathione disulfide", "value": -0.3868},
      {"measurement": "Log2(fold change) glycerate", "setting": "metabolite glycerate", "value": -0.4490},
      {"measurement": "Log2(fold change) guanine", "setting": "metabolite guanine", "value": -0.8448},
      {"measurement": "Log2(fold change) guanosine", "setting": "metabolite guanosine", "value": -1.2469},
      {"measurement": "Log2(fold change) histidine", "setting": "metabolite histidine", "value": -1.0996},
      {"measurement": "Log2(fold change) homocysteic acid", "setting": "metabolite homocysteic acid", "value": -0.4943},
      {"measurement": "Log2(fold change) hydroxyphenylpyruvate", "setting": "metabolite hydroxyphenylpyruvate", "value": 0.0000},
      {"measurement": "Log2(fold change) hydroxyproline/Aminolevulinate", "setting": "metabolite hydroxyproline/Aminolevulinate", "value": -0.0777},
      {"measurement": "Log2(fold change) hypoxanthine", "setting": "metabolite hypoxanthine", "value": -0.1293},
      {"measurement": "Log2(fold change) indole", "setting": "metabolite indole", "value": 0.0000},
      {"measurement": "Log2(fold change) inosine", "setting": "metabolite inosine", "value": -0.6031},
      {"measurement": "Log2(fold change) isoleucine", "setting": "metabolite isoleucine", "value": -0.8559},
      {"measurement": "Log2(fold change) lactate", "setting": "metabolite lactate", "value": -0.6662},
      {"measurement": "Log2(fold change) leucine", "setting": "metabolite leucine", "value": 0.0000},
      {"measurement": "Log2(fold change) lysine", "setting": "metabolite lysine", "value": -2.7291},
      {"measurement": "Log2(fold change) malate", "setting": "metabolite malate", "value": -1.5961},
      {"measurement": "Log2(fold change) maleic acid", "setting": "metabolite maleic acid", "value": 0.0000},
      {"measurement": "Log2(fold change) methionine", "setting": "metabolite methionine", "value": -0.3354},
      {"measurement": "Log2(fold change) myo-inositol", "setting": "metabolite myo-inositol", "value": 0.0000},
      {"measurement": "Log2(fold change) nicotinamide mononucleotide", "setting": "metabolite nicotinamide mononucleotide", "value": -1.1163},
      {"measurement": "Log2(fold change) nicotinate", "setting": "metabolite nicotinate", "value": -0.1414},
      {"measurement": "Log2(fold change) ornithine", "setting": "metabolite ornithine", "value": -0.3825},
      {"measurement": "Log2(fold change) orotate", "setting": "metabolite orotate", "value": 0.0000},
      {"measurement": "Log2(fold change) orotidine-5'-phosphate", "setting": "metabolite orotidine-5'-phosphate", "value": -4.2271},
      {"measurement": "Log2(fold change) oxaloacetate", "setting": "metabolite oxaloacetate", "value": 0.0000},
      {"measurement": "Log2(fold change) p-aminobenzoate", "setting": "metabolite p-aminobenzoate", "value": 0.0000},
      {"measurement": "Log2(fold change) p-hydroxybenzoate", "setting": "metabolite p-hydroxybenzoate", "value": 0.0000},
      {"measurement": "Log2(fold change) pantothenate", "setting": "metabolite pantothenate", "value": -0.5576},
      {"measurement": "Log2(fold change) phenylalanine", "setting": "metabolite phenylalanine", "value": -0.7473},
      {"measurement": "Log2(fold change) phenylpyruvate", "setting": "metabolite phenylpyruvate", "value": 0.0000},
      {"measurement": "Log2(fold change) phosphoenolpyruvate", "setting": "metabolite phosphoenolpyruvate", "value": 0.5342},
      {"measurement": "Log2(fold change) prephenate", "setting": "metabolite prephenate", "value": -0.6985},
      {"measurement": "Log2(fold change) proline", "setting": "metabolite proline", "value": -0.4674},
      {"measurement": "Log2(fold change) pyridoxine", "setting": "metabolite pyridoxine", "value": -0.4977},
      {"measurement": "Log2(fold change) pyruvate", "setting": "metabolite pyruvate", "value": -0.6971},
      {"measurement": "Log2(fold change) riboflavin", "setting": "metabolite riboflavin", "value": 0.0000},
      {"measurement": "Log2(fold change) ribose", "setting": "metabolite ribose", "value": -0.3439},
      {"measurement": "Log2(fold change) ribose-phosphate", "setting": "metabolite ribose-phosphate", "value": -0.4255},
      {"measurement": "Log2(fold change) ribulose-5-phosphate", "setting": "metabolite ribulose-5-phosphate", "value": 0.0000},
      {"measurement": "Log2(fold change) serine", "setting": "metabolite serine", "value": -0.2977},
      {"measurement": "Log2(fold change) sn-glycerol-3-phosphate", "setting": "metabolite sn-glycerol-3-phosphate", "value": 0.0000},
      {"measurement": "Log2(fold change) succinate/Methylmalonic acid", "setting": "metabolite succinate/Methylmalonic acid", "value": 0.2362},
      {"measurement": "Log2(fold change) succinyl-CoA/methylmalonyl-CoA", "setting": "metabolite succinyl-CoA/methylmalonyl-CoA", "value": 0.0000},
      {"measurement": "Log2(fold change) taurine", "setting": "metabolite taurine", "value": 0.0000},
      {"measurement": "Log2(fold change) thiamine", "setting": "metabolite thiamine", "value": -0.4264},
      {"measurement": "Log2(fold change) threonine/homoserine", "setting": "metabolite threonine/homoserine", "value": -0.5095},
      {"measurement": "Log2(fold change) thymidine", "setting": "metabolite thymidine", "value": 0.0000},
      {"measurement": "Log2(fold changes) thymine", "setting": "metabolite thymine, log2 fold change", "value": 0.0000},
      {"measurement": "Log2(fold changes) trehalose-6-Phosphate", "setting": "metabolite trehalose-6-Phosphate, log2 fold change", "value": 0.0000},
      {"measurement": "Log2(fold changes) tryptophan", "setting": "metabolite tryptophan, log2 fold change", "value": -0.3248},
      {"measurement": "Log2(fold changes) tyrosine", "setting": "metabolite tyrosine, log2 fold change", "value": -0.3731},
      {"measurement": "Log2(fold changes) uridine", "setting": "metabolite uridine, log2 fold change", "value": -0.7263},
      {"measurement": "Log2(fold changes) valine", "setting": "metabolite valine, log2 fold change", "value": 0.0000},
      {"measurement": "Log2(fold changes) xanthine", "setting": "metabolite xanthine, log2 fold change", "value": 0.0000},
      {"measurement": "Log2(fold changes) xanthosine-5-phosphate", "setting": "metabolite xanthosine-5-phosphate, log2 fold change", "value": 0.0000},
      {"measurement": "Log2(fold changes) xanthosine", "setting": "metabolite xanthosine, log2 fold change", "value": -0.5168},
      {"measurement": "Log2(fold changes) xylose", "setting": "metabolite xylose, log2 fold change", "value": 0.0000}
    ]}
  ]
}
